Experimental data taken from US8853246B2 (Dow AgroSciences LLC, priority 2009, dated 2014).
Like-named read-outs stand apart in the source and are kept apart here.

Experiments:
[1] = tested on: Green Peach Aphid (Myzus Persicae); experiment: Insecticidal test for green peach aphid in foliar spray assay (col. MYZUPE); format: in vivo; conditions: Myzus persicae, 72 h, read-out: MYZUPE 200 ppm (Corrected % Control, rating)
In short: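 Corrected % control derives from microscope counts of live aphids per plant, treated against diluent-only checks, 3 days after foliar spraying at ~25 °C and 40% RH. Test solution was 200 ppm in 0.025% aqueous Tween 20, applied to both leaf sides of infested cabbage seedlings, four pots each.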

[2] = tested on: Sweetpotato Whitefly-Crawler (Bemisia Tabaci); experiment: Insecticidal test for sweetpotato whitefly-crawler in foliar spray assay (col. BEMITA); format: in vivo; conditions: Bemisia tabaci, read-out: BEMITA 200 ppm (Corrected % Control, rating)
In short: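 Percent control, Abbott-corrected against diluent-sprayed plants, from microscope counts of live nymphs 8-9 days after treatment. Test solution at 200 ppm in 0.025% aqueous Tween 20 applied to both leaf sides of egg-infested cotton after a 5-6 day hatch period (82° F, 50% RH).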

Row | Structure (SMILES) | pest or weed control at 200 ppm ([1]; green peach aphid) | pest or weed control at 200 ppm ([2]; sweetpotato whitefly-crawler) | melting point | pest or weed control at 200 ppm ([1]; Abbott's correction formula) | pest or weed control at 200 ppm ([2]; Abbott's correction formula)
1 | Cc1nc(-c2cccnc2)sc1NC(=O)CCS(C)(=O)=O [Compound 100] | 80 to 100% | < 80% | 222 to 224 °C |  | 
2 | CSCC(C)(C)C(=O)N(C)c1sc(-c2cncnc2)nc1C [Compound 53] | < 80% | 80 to 100% | 123 to 125 °C |  | 
3 | CSCCC(=O)Nc1sc(-c2cncc(F)c2)nc1Br [Compound 298] | 80 to 100% | < 80% | 160 to 163 °C |  | 
4 | CSCCC(=O)Nc1sc(-c2cccnc2)nc1C [Compound 55] | 80 to 100% | 80 to 100% | 136 to 139 °C |  | 
5 | CSCCOC(=O)Nc1sc(-c2cccnc2)nc1C [Compound 181] | 80 to 100% | < 80% | 123 to 126 °C |  | 
6 | CSCCC(=O)N(C)c1cnc(-c2cncc(F)c2)s1 [Compound 30, N-[2-(5-fluoro-pyridin-3-yl)-thiazol-5-yl]-N-methyl-3-methylsulfanyl-propionamide] | 80 to 100% | < 80% | 111 to 114 °C |  | 
7 | CSCCC(=O)N(C)c1sc(-c2cncc(F)c2)nc1C#N [Compound 503] |  |  | 97 to 98 °C | < 80% | < 80%
8 | Cc1nc(-c2cccnc2)sc1NC(=O)C(C)C [Compound 58] | 80 to 100% | 80 to 100% | 159 to 162 °C |  | 
9 | CCN(C(=O)C1(C)CC1(Cl)Cl)c1sc(-c2cccnc2)nc1Cl (stereo not drawn) [Compound 536] |  |  | 144 to 146 °C | < 80% | < 80%
10 | CC(C)(C)OC(=O)Nc1sc(-c2cncc(F)c2)nc1Br [Compound 297] | < 80% | < 80% | 164 to 166 °C |  | 
11 | CN(C(=O)CC[S+](C)[O-])c1sc(-c2cncc(F)c2)nc1Br (stereo not drawn) [Compound 454] |  |  | 170 to 173 °C | 80 to 100% | 80 to 100%
12 | CSCC(C)C(=O)Nc1sc(-c2cccnc2)nc1C (stereo not drawn) [Compound 56] | 80 to 100% | 80 to 100% | 132 to 136 °C |  | 
13 | CCN(C(=O)c1cc(Cl)cc(Cl)c1)c1sc(-c2cccnc2)nc1Cl [Compound 564] |  |  | 172 to 174 °C | < 80% | < 80%
14 | CCN(C(=O)CCSC)c1cnc(-c2cncc(F)c2)s1 [Compound 308] | 80 to 100% | 80 to 100% | 78 to 81 °C |  | 
15 | CN(C(=O)OC(C)(C)C)c1sc(-c2cncc(F)c2)nc1Br [Compound 318] | 80 to 100% | < 80% | 108 to 110 °C |  | 
16 | Cc1nc(-c2cccnc2)sc1NC(=O)[C@H](C)NC(=O)OC(C)(C)C [Compound 187] | 80 to 100% | < 80% | 166 to 169 °C |  | 
17 | CN(C(=O)CCS(C)(=O)=O)c1sc(-c2cncc(F)c2)nc1Br [Compound 455] |  |  | 198 to 201 °C | 80 to 100% | 80 to 100%
18 | CC(C)C(=O)N(C)c1cnc(-c2ccc(Cl)nc2)s1 [Compound 69] | < 80% | 80 to 100% | 155 to 159 °C |  | 
19 | Cc1nc(-c2cccnc2)sc1NC(=O)OC1CCCCC1 [Compound 375] | < 80% | < 80% | 163 to 167 °C |  | 
20 | Cc1nc(-c2cccnc2)sc1NC(=O)OC(C)C(F)(F)F (stereo not drawn) [Compound 378] | 80 to 100% | 80 to 100% | 133 to 137 °C |  | 

Row | Structure (SMILES) | pest or weed control at 200 ppm ([1]; green peach aphid) | pest or weed control at 200 ppm ([2]; sweetpotato whitefly-crawler) | melting point | pest or weed control at 200 ppm ([1]; Abbott's correction formula) | pest or weed control at 200 ppm ([2]; Abbott's correction formula)
21 | CSCC(C)(C)C(=O)N(C)c1cnc(-c2ccc(Cl)nc2)s1 [Compound 68] | 80 to 100% | 80 to 100% | 104 to 108 °C |  | 
22 | CSCC(C)(C)C(=O)N(C)c1sc(-c2cccnc2)nc1Cl [Compound 264] | 80 to 100% | 80 to 100% | 103 to 106 °C |  | 
23 | Cc1nc(-c2cccnc2)sc1NC(=O)C(C)(C)CS(C)(=O)=O [Compound 101] | 80 to 100% | 80 to 100% | 134 to 136 °C |  | 
24 | Cc1nc(-c2cncc(F)c2)sc1NC(=O)CC[S+](C)[O-] (stereo not drawn) [Compound 147] | 80 to 100% | < 80% | 181 to 184 °C |  | 
25 | CSC(C)(C)CC(=O)Nc1sc(-c2cncc(F)c2)nc1C [Compound 217] | 80 to 100% | < 80% | 123 to 126 °C |  | 
26 | Cc1nc(-c2cncc(F)c2)sc1NC(=O)C1CCSC1 (stereo not drawn) [Compound 219] | 80 to 100% | < 80% | 209 to 213 °C |  | 
27 | CC(C[S+](C)[O-])C(=O)Nc1sc(-c2cncc(F)c2)nc1Br (stereo not drawn) [Compound 306] | 80 to 100% | < 80% | 172 to 175 °C |  | 
28 | CC(C)(C)OC(=O)Nc1sc(-c2cncc(F)c2)nc1I [Compound 481, tert-butyl 2-(5-fluoropyridin-3-yl)-4-iodothiazol-5-yl carbamate] |  |  | 148 to 149 °C | < 80% | < 80%
29 | CN(C(=O)C(C)(C)C[S+](C)[O-])c1cnc(-c2cncc(F)c2)s1 (stereo not drawn) [Compound 85] | 80 to 100% | 80 to 100% | 155 to 159 °C |  | 
30 | CCN(C(=O)C(C)CSC)c1sc(-c2cccnc2)nc1Cl (stereo not drawn) [Compound 316, N-(4-chloro-2-pyridin-3-yl-thiazol-5-yl)-N-ethyl-2-methyl-3-methylsulfanyl-propionamide] | 80 to 100% | < 80% | 79 to 81 °C |  | 
31 | CN(C(=O)C(C)(C)C)c1cnc(-c2cccnc2)s1 [Compound 23] | 80 to 100% | < 80% | 102 to 105 °C |  | 
32 | CC(C)(C)OC(=O)Nc1sc(-c2cccnc2)nc1F [Compound 478] |  |  | 184 to 186 °C | 80 to 100% | < 80%
33 | CC(C[S+](C)[O-])C(=O)N(C)c1sc(-c2cnc(Cl)c(F)c2)nc1Cl (stereo not drawn) [Compound 474] |  |  | 30 to 35 °C | < 80% | < 80%
34 | Cc1nc(-c2cncc(F)c2)sc1NC(=O)C(C)C/S(C)=N\C#N (stereo not drawn) [Compound 163] | 80 to 100% | < 80% | 75 to 81 °C |  | 
35 | COC(=O)CCC(=O)Nc1sc(-c2cccnc2)nc1C [Compound 197] | 80 to 100% | < 80% | 151 to 153 °C |  | 
36 | CC(=O)Nc1sc(-c2cccnc2)nc1C [Compound 186] | < 80% | < 80% | 180 to 182 °C |  | 
37 | CCN(C(=O)c1cn(C)nc1C(F)(F)F)c1sc(-c2cccnc2)nc1Cl [Compound 547] |  |  | 110 to 111 °C | 80 to 100% | 80 to 100%
38 | Cc1nc(-c2cncc(F)c2)sc1N(C)C(=O)C(C)C [Compound 41] | 80 to 100% | 80 to 100% | 123 °C |  | 
39 | CC(C)C(=O)Nc1sc(-c2cccnc2)nc1C(F)(F)F [Compound 136] | 80 to 100% | < 80% | 130 to 131 °C |  | 
